Reference: US12643907B2 (priority 2020, dated 2026)
“Also recorded” adds a separate entry of the source.

Experiments:
mice = assay: Mouse 55° C. tail-withdrawal assay, antinociception of the compound itself (opioid agonist effects); assay type: in vivo; conditions: s.c.
MOR = molecular target: T1, MOR (Mus musculus, UniProt P42866); assay: Mouse 55° C. warm-water tail withdrawal (WWTW) assay, antagonism of the MOR agonist morphine; assay type: in vivo; conditions: for antagonism of morphine-induced antinociception at 24 h: 24 h after a 30 mg/kg s.c. treatment
T1 construct: from tissue; host or cells: living mice (in vivo)
T1 sequence (P42866 whole entry): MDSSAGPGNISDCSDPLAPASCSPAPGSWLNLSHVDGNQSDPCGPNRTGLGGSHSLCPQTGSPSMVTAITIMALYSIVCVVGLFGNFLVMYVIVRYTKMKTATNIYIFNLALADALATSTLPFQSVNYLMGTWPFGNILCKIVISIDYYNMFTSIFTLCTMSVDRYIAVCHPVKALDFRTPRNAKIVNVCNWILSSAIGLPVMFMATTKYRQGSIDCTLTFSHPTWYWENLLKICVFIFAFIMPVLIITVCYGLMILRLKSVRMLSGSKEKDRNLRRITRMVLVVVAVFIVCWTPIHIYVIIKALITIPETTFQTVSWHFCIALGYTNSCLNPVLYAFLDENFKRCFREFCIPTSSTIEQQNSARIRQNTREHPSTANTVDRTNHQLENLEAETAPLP

[1] = naloxone; cited from earlier work

C=CCN1CC[C@]23c4c5ccc(O)c4O[C@H]2[C@H](N(C)CCS(=O)(=O)F)CC[C@@]3(O)C1C5 [TJ-171]
antinociception of compound alone (opioid agonist effects) (mice; doses up to 30 mg/kg): did not display antinociception; also recorded: no antinociception
duration of MOR antagonism (MOR; 30 mg/kg, s.c.): at least 24 hours
antagonism of morphine-induced antinociception at 24 h (MOR): fully antagonized

C=CCN1CC[C@]23c4c5ccc(O)c4O[C@H]2C(=O)CC[C@@]3(O)[C@H]1C5 [naloxone]
half-life [1]: 2 h

C=CCN1CCC23c4c5ccc(O)c4OC2C(N(C)CCS(=O)(=O)F)CCC3(O)C1C5 (racemic) [TJ-345]
weak transient antinociception of compound alone (mice; >30 nmol i.c.v. or 60 mg/kg, first 40 min after treatment): ~15%
antagonism of morphine-induced antinociception at 24 h (MOR; 30 mg/kg): only partial blockade; also recorded: only partially antagonized
duration of blockade of opiate analgesia (MOR; doses as low as 3 nmol (i.c.v) or 30 mg/kg (s.c.)): 24 to 48 h
doses that antagonized morphine antinociception (MOR; i.c.v. pretreatment, not 0.3 nmol): 3 to 300 nmol
doses that antagonized morphine antinociception (MOR; s.c. pretreatment, not 1 mg/kg): 3 to 60 mg/kg
